Assay results taken from PMC10046037, “GABRG2 Variants Associated with Febrile Seizures” (Biomolecules, 2023).

Molecular target: T1, α1β3γ2 GABAA receptor, γ2F457S variant (Homo sapiens, UniProt P14867+P18507+P28472, F457S)
T1 construct: expressed in transfected cells; host or cells: HEK293T
T1 sequence (P14867 28-456): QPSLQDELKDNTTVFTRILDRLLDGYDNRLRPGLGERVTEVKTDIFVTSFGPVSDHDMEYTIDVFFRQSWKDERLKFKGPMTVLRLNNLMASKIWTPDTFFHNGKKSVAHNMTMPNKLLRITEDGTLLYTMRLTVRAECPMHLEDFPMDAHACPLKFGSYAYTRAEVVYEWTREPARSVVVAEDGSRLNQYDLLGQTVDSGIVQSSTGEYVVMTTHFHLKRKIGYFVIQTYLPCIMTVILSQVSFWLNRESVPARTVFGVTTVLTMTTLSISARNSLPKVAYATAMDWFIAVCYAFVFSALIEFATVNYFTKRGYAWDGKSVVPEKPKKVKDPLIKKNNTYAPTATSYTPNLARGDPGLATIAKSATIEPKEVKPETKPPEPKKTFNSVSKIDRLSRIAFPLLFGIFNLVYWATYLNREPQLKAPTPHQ
T1 sequence (P28472 26-473 isoform P28472-2): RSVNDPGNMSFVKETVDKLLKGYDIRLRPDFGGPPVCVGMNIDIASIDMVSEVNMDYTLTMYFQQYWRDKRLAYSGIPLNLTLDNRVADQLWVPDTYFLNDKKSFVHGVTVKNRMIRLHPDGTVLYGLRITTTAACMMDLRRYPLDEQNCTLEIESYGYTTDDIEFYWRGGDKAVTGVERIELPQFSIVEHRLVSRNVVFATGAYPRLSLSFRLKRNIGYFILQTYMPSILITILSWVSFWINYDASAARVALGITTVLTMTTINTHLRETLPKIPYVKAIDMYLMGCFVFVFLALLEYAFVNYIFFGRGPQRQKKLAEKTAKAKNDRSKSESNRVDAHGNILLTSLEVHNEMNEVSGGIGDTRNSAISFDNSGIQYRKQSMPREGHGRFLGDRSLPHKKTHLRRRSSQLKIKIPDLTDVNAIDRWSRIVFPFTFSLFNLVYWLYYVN
T1 sequence (P18507 40-475 F457S): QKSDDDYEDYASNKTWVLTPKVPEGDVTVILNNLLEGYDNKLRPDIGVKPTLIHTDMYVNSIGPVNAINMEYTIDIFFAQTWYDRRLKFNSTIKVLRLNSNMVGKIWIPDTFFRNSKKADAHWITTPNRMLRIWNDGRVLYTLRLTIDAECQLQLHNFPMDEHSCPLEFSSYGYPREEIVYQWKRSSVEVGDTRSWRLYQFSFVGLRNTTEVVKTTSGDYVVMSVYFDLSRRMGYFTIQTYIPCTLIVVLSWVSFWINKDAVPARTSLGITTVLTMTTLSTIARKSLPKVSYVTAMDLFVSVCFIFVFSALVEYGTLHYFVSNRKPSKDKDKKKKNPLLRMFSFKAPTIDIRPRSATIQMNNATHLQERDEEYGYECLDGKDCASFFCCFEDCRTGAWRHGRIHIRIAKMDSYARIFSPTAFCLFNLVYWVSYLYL
Experiment: Automated patch clamp of GABA-elicited currents (SyncroPatch 384PE), γ2F457S
Type: cell-based
Conditions: mean
Description: The coding sequences of human α1 (GABRA1, NM_000806), β3 (GABRB3, NM_021912), and γ2 (GABRG2, NM_198904.2) GABAAR subunits were subcloned into the pcDNA3.1 expression vectors (Invitrogen, Waltham, MA, USA).
HEK293T cells (ATCC, CRL-11268) were cultured at 37 °C in a humidified 5% CO2 incubator and maintained in Dulbecco’s modified Eagle’s medium (Invitrogen) supplemented with 10% fetal bovine serum (Life Technologies, Carlsbad, CA, USA), and 100 IU/mL of penicillin/streptomycin (Life Technologies). For the expression experiments, 4 × 10^5 cells were transfected using polyethylenimine (PEI) reagent (40 kD, Polysciences, Warrington, PA, USA) at a DNA: to transfection reagent ratio of 1:2.5 and harvested 36 h after transfection. To express WT and variant α1β3γ2 receptors, a total of 3 µg of α1, β3, and γ2 (WT or mutant) subunit cDNAs were transfected at a ratio of 1:1:1 into 60 mm culture dishes. For the mock-transfected condition, an empty pcDNA3.1 vector was added for a final cDNA transfection amount of 3 μg. For the electrophysiology experiments, 2.5 × 10^5 cells were plated in 100 mm culture dishes and transfected after 24 h with 3 μg of cDNA of each α1, β3, γ2 (wild-type or mutant) subunit, using X-tremeGENE HP DNA transfection Reagent (Roche Diagnostics, Basel, Switzerland), following the manufacturer’s protocol. Recordings were obtained forty-eight hours after transfection.
Whole-cell patch clamp recordings were conducted according to the manufacturer’s standard procedure for the SyncroPatch 384 [31]. Whole-cell voltage-clamp recordings were performed at room temperature on HEK293T cells 48 h after transfection with GABAAR subunits, using the SyncroPatch 384PE (Nanion Technologies, Munich, Germany). Cells, at a concentration of 400,000 cells/mL, were harvested in suspension in external solution containing 140 mM of NaCl, 2 mM of CaCl2, 4 mM of KCl, 1 mM of MgCl2, 5 mM of glucose, and 10 mM of HEPES (pH 7.4 with NaOH, 298 mOsm). The cells were loaded in a multi-hole (4 holes per well) 384-well Nanion patch clamp (NPC) chip with a thick borosilicate glass bottom and an average resistance pore size of […]. Built-in electrophysiological protocols were used, and the data were digitized using PatchControl 384 (Nanion Technologies) application. Using PatchControl 384, electrophysiological parameters, such as seal resistance, capacitance, and series resistance, were determined for each well after the application of a test pulse, and subsequently monitored over time. […] The currents were normalized to the maximal response of each well, and the concentration–response curves were calculated from single-point additions. The EC50 values for each variant or wild-type receptor were calculated across multiple wells for each experimental condition.

NCCCC(=O)O [GABA, γ-aminobutyric acid]
Deactivation (1 mM GABA for 5 ms, HEK293T, -80 mV): 224.8 ms
IMAX (maximal GABA-evoked peak current) (1 mM GABA for 5 ms, HEK293T): 0.44 nA
IMAX variant/IMAX WT (1 mM GABA): 21.96%
Rise Time (10–90% rise time, 1 mM GABA for 5 ms, HEK293T): 60.51 ms
